{"source": "patent US12329852B2", "about": "“Sustained-release 9-cis retinoic acid implantable drug delivery pellets for the prevention of postsurgical edema and lymphedema” (UNIVERSITY OF SOUTHERN CALIFORNIA, priority 2019, dated 2025)", "key": {"hind limb lymphedema": {"test_system": "hind limb lymphedema", "test": "Hind limb lymphedema model, paw thickness (implantable pellet)", "format": "in vivo, mouse", "settings": "for paw swelling, mean difference compared to control animals: implantable pellet 100 μg 9-cis RA, 30-day release", "description": "All experiments were performed in accordance with the statutes from The Guide for the Care and Use of Laboratory Animals (National Research Council, 8th ed, 2011), the Animal Welfare Act, and other Federal regulations. The was approved by the University of Southern California Institutional Animal Care and Use Committee. Male and female Prox-1 green fluorescent protein (GFP) transgenic mice, 12-16 weeks old, weighing 20-30 g were bred within the University of Southern California animal facility. This GFP-expressing lymphatic reporter mouse was used because it conveniently allowed for the visualization of lymphatic vessels and other Prox1-expressing tissue under fluorescence microscopy, and facilitated the immunohistochemical staining of lymphatic vessels using anti-GFP primary antibody.\nUnder isoflurane-inhaled anesthesia, the lymphatic injury protocol was used on all experimental mice to induce hind limb lymphedema. This consisted of hind limb lymph node dissection followed by adjuvant radiation therapy. Using a dissecting microscope, a circumferential intradermal incision was made around the thigh, after which the ipsilateral inguinal fat pad, containing the inguinal lymph nodes, and ipsilateral popliteal lymph node were removed, as previously described. Visualization of the inguinal and popliteal lymphatics was facilitated by the injection of methylene blue dye on the dorsum of the paw and by the use of a green fluorescent microscope. Skin sutures were placed in 7-8 mm gaps to reinforce discontinuity of dermal lymphatics. The surgical area was then irradiated using a clinically relevant dose of 27.5 Gy radiation delivered by an XRad 320 device over a period of 5 days (550 cGy per day), which is the human equivalent dose for mouse.\nPellets were placed within the surgical wound intraoperatively and sutured in place to the adductor muscles of the thigh. Treatment pellets were custom-manufactured by Innovative Research of America (Sarasota, FL) to contain 100 μg of 9-cis RA, released over a period of 30 days using a matrix-driven delivery system. The carrier-binder excipients of the pellet matrix were synthetic and non-toxic, and included cholesterol, lactose, celluloses, phosphates, and stearates.\nPrior to surgery, all animals were sex-, age-, and weight-matched to eliminate confounding variables. Paw thickness, the primary outcome, was measured weekly using electronic calipers for a total of 6 weeks. Paw thickness was normalized for each animal by calculating percent change relative to the unaffected paw. Hind limbs were photographed using a Nikon D5000 digital SLR flash camera using fixed distances, focal length, background, and positioning."}, "tail lymphedema [1]": {"test_system": "tail lymphedema", "test": "Lymphatic vessel density, podoplanin immunohistochemistry of tail", "format": "in vivo, BALB/c mice", "settings": "0.08 mg/kg daily i.p.", "description": "Tail specimens were collected on post-operative day 47. Specimens were harvested to include 1 cm proximal and 1 cm distal the wound, then divided to separate proximal and distal portions. Tails were inked to enable proper orientation, fixed in 10% neutral buffered formalin overnight, decalcified in 10% EDTA (pH: 7.3) for 6 days at 4° C., embedded in paraffin, sectioned at 3-5 μm, then stained with hematoxylin and eosin (H&E) or via immunohistochemical techniques. In summary, sections were deparaffinized, underwent antigen retrieval with sodium citrate buffer, incubated overnight with the primary antibody (1:200) at 4° C., washed, incubated with a suitable secondary antibody (1:200), then stained with immPACT DAB Substrate (Vector Laboratories, Inc, Burlingame, CA) and counterstained with Delafield Hematoxylin (Sigma-Aldrich, USA) diluted 1:4. Podoplanin (clone 8.1.1; sc-53533, Santa Cruz Biotechnology, Inc., Dallas, TX) was used to immunohistochemically mark lymphatics in paraffin embedded tail sections.\n(§1) Slides were counterstained with hematoxylin and mounted. All images were obtained with a Keyence BZ-X700 microscope (Itasca, IL) and epidermal and dermal thickness was measured using ImageJ (National Institutes of Health, Betheseda, MD). The thickest part of the epidermis and dermis was measured in 5 high-power fields per section, as previously described. On the immunohistochemically stained slides, podoplanin stained vessels in the dermis and subcutis were quantified in ImageJ. Two high-power fields per section were randomly selected and then analyzed by a blinded reviewer. The reviewer scored the number of podoplanin stained vessels and the area (mm^2) of the dermis and subcutaneous tissue in each image. […]"}, "[2]": {"test_system": "lymphatic vessels of uninjured ears", "test": "Lymphatic analysis of uninjured ears, LYVE-1 whole mount", "format": "in vivo, BALB/c mice", "settings": "0.08 mg/kg daily i.p., any duration", "description": "Bilateral ears of animals were harvested simultaneously with the diaphragm, removed of all hair using depilatory cream and fixed in 4% paraformaldehyde. The ears were then split between the inner and outer layers under a dissecting microscope and the cartilage removed prior to immunoflourescence staining. The whole mounted specimens were subsequently stained with anti-LYVE-1 and anti-CD-31 antibodies after washing with PBS, permeabilizing with 0.5% Triton X-100 (Sigma-Aldrich, USA), and incubated with the primary antibody (1:500) overnight. Green secondary antibodies (1:200 donkey anti-rabbit Alexa Fluor 488, Thermo Fisher Scientific, Canoga Park, CA) were used to stain for LYVE-1.\nas §1"}, "diaphragmatic lymphatics": {"test_system": "diaphragmatic lymphatics", "test": "India ink staining of the diaphragm", "format": "in vivo, BALB/c mice", "settings": "0.08 mg/kg daily i.p.", "description": "On post-operative day 47, each animal was intraperitoneally injected with 5 cc of India Ink which was diluted 2-folds with distilled water. Ten minutes after the injection of India ink, the animal was euthanized and the diaphragms were harvested in their entirety. The specimens were then rinsed with running tap water for 1 minute and mounted on the stage of a dissecting microscope equipped with a digital camera. The whole-mount specimen, exclusive of the central tendon, was then analyzed for the passive lymphatic absorption of India ink utilizing the percent stained area on ImageJ."}, "tail lymphedema [3]": {"test_system": "tail lymphedema", "test": "Oral administration, tail lymphedema, gross tail volume", "format": "in vivo, BALB/c mice", "settings": "oral gavage in sunflower oil for 6 weeks", "experimental": "Oral administration experiments were performed on 30 adult BALB/c mice, 12 to 14 weeks old, and weighing between 21 and 30 g. Surgical excision of lymphatic vessels at 20-mm from the base of the tail was performed in order to induce secondary lymphedema. Mice receive 9-cis RA dissolved in sunflower oil via oral gavage for 6 weeks in accordance to the dosing regimes in Table 3."}, "postsurgical lymphedema": {"test_system": "postsurgical lymphedema", "settings": "daily intraperitoneal injections 0.08 mg/kg; earlier work [13]; cited from earlier work"}, "[4]": {"test_system": "lymphatic endothelial cell", "settings": "in vitro; earlier work [12,13]; cited from earlier work"}}, "note": "“Also recorded” adds a separate entry of the source."}
{"compound": "CC1=C(/C=C/C(C)=C\\C=C\\C(C)=C\\C(=O)O)C(C)(C)CCC1", "note": "[9-cis RA, 9-cis retinoic acid]", "values": [{"measurement": "paw swelling, mean difference compared to control animals", "setting": "hind limb lymphedema; postoperative week 3", "value": 7, "unit": "%"}, {"measurement": "paw swelling, mean difference compared to control animals", "setting": "hind limb lymphedema; postoperative week 4", "value": 12, "unit": "%"}, {"measurement": "paw swelling, mean difference compared to control animals", "setting": "hind limb lymphedema; postoperative week 5", "value": 9, "unit": "%"}, {"measurement": "paw swelling, mean difference compared to control animals", "setting": "hind limb lymphedema; postoperative week 6", "value": 11, "unit": "%"}, {"measurement": "change in paw swelling/thickness within the treatment group over time", "setting": "hind limb lymphedema; implantable pellet, between time points over 6 weeks", "value": "no significant differences in paw swelling are observed between time points"}, {"measurement": "lymphatic vessel density compared to control", "setting": "tail lymphedema [1]; 7-day delay group", "value": "strong trend towards improvement but not statistical significance"}, {"measurement": "lymphatic vessel density compared to control", "setting": "tail lymphedema [1]; 14-day group", "value": "trend towards increased lymphatic density that did not reach statistical significance; also recorded: trending towards significance"}, {"measurement": "lymphatic vessel density compared to control", "setting": "tail lymphedema [1]; 42-day/45-day group, tails distal to wound, day 47", "value": "significantly increased compared to the controls; also recorded: statistically significant difference"}, {"measurement": "number of branch points, blind-ended sacs, loops, total length, density of lymphatic vessels in uninjured ears vs vehicle control", "setting": "[2]", "value": "no significant difference"}, {"measurement": "percent stained area of diaphragms (India ink) vs vehicle control", "setting": "diaphragmatic lymphatics; 14-day group", "value": "marginal significance"}, {"measurement": "percent stained area of diaphragms (India ink) vs vehicle control", "setting": "diaphragmatic lymphatics; groups other than 14-day", "value": "essentially no differences"}, {"measurement": "change in gross tail volume", "setting": "tail lymphedema [3]; high dose 30 mg/kg", "value": "decreases change in gross tail volume"}, {"measurement": "change in gross tail volume", "setting": "tail lymphedema [3]; low dose 10 mg/kg, 10 mg/kg", "value": "decreases change in gross tail volume"}, {"measurement": "change in gross tail volume", "setting": "tail lymphedema [3]; low dose 10 mg/kg, listed as 9-cis retinoic acid, 10 mg/kg", "value": "most effective for preventing post-surgical tail lymphedema"}, {"measurement": "prevention of postsurgical lymphedema", "setting": "postsurgical lymphedema", "value": "significantly prevents development of lymphedema; also recorded: prevents postsurgical lymphedema"}, {"measurement": "lymphatic endothelial cell proliferation, migration and vessel formation", "setting": "[4]", "value": "significantly increased"}]}
